# According to US10266609B2, “Immunomodulating beta-1,6-D-glucans” (Innate Biotherapeutics, LLC, priority 2014, dated 2019):
# Tested on: Anti-β-1,6-Glucan IgG antibodies (affinity purified from IVIG, Baxter)
# Assay: ELISA: binding of oligosaccharides to anti-β-1,6-glucan antibodies; also: key: a plus (+) sign indicates that the glucan was active in the assay; a minus (−) sign indicates that the glucan was not active; the '+/−' symbol indicates inconclusive results
# Conditions: plate coated with oligosaccharide in PBS; 40 ug/mL anti-Beta 1,6 Glucan IgG; anti-human IgG-HRP, TMB, absorbance at 620 nm
# Outline: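 Oligosaccharides coated overnight at 4° C in PBS, casein-blocked 1 h at room temperature, then incubated 45 min with 40 ug/mL anti-β-1,6-glucan IgG. Bound IgG detected with anti-human IgG-HRP (1:5000, 45 min, dark) and TMB; absorbance at 620 nm read every 1 min for 60 min.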
row,Molecule,ELISA assay data: glucan active in detection of anti-beta glucan IgG
1,"COC1O[C@H](CO[C@@H]2O[C@H](CO[C@@H]3O[C@H](CO[C@@H]4O[C@H](CO)[C@@H](O)[C@H](O)[C@H]4O)[C@@H](O)[C@H](O)[C@H]3O)[C@@H](O)[C@H](O)[C@H]2O)[C@@H](O)[C@H](O)[C@H]1O (stereo partly drawn) [OCH3, n=4, methyl [O-β-D-glucopyranosyl-1,6]3-D-glucopyranoside]",+
2,"CO[C@H]1O[C@H](CO[C@@H]2O[C@H](CO[C@@H]3O[C@H](CO[C@@H]4O[C@H](CO[C@@H]5O[C@H](CO[C@@H]6O[C@H](CO)[C@@H](O)[C@H](O)[C@H]6O)[C@@H](O)[C@H](O)[C@H]5O)[C@@H](O)[C@H](O)[C@H]4O)[C@@H](O)[C@H](O)[C@H]3O)[C@@H](O)[C@H](O)[C@H]2O)[C@@H](O)[C@H](O)[C@H]1O [OCH3, n=6, methyl [O-β-D-glucopyranosyl-1,6]5-D-glucopyranoside]",+
3,"[O-β-D-glucopyranosyl-1,6]6-D-glucopyranoside [OH, n=7]",+
4,"COC1O[C@H](CO[C@@H]2O[C@H](CO[C@@H]3O[C@H](CO[C@@H]4O[C@H](CO[C@@H]5O[C@H](CO[C@@H]6O[C@H](CO[C@@H]7O[C@H](CO[C@@H]8O[C@H](CO[C@@H]9O[C@H](CO[C@@H]%10O[C@H](CO)[C@@H](O)[C@H](O)[C@H]%10O)[C@@H](O)[C@H](O)[C@H]9O)[C@@H](O)[C@H](O)[C@H]8O)[C@@H](O)[C@H](O)[C@H]7O)[C@@H](O)[C@H](O)[C@H]6O)[C@@H](O)[C@H](O)[C@H]5O)[C@@H](O)[C@H](O)[C@H]4O)[C@@H](O)[C@H](O)[C@H]3O)[C@@H](O)[C@H](O)[C@H]2O)[C@@H](O)[C@H](O)[C@H]1O (stereo partly drawn) [OCH3, n=10, methyl [O-β-D-glucopyranosyl-1,6]9-D-glucopyranoside]",+
5,"OC[C@H]1O[C@@H](OC[C@H]2O[C@@H](OC[C@H]3O[C@@H](OC[C@H]4OC(OCCCl)[C@H](O)[C@@H](O)[C@@H]4O)[C@H](O)[C@@H](O)[C@@H]3O)[C@H](O)[C@@H](O)[C@@H]2O)[C@H](O)[C@@H](O)[C@@H]1O (stereo partly drawn) [α-O(CH2)2Cl, n=4, 2-chloroethyl [O-β-D-glucopyranosyl-1,6]3-D-glucopyranoside]",+
6,"OC[C@H]1O[C@@H](OC[C@H]2O[C@@H](OC[C@H]3O[C@@H](OC[C@H]4O[C@@H](OC[C@H]5O[C@@H](OC[C@H]6OC(OCCCl)[C@H](O)[C@@H](O)[C@@H]6O)[C@H](O)[C@@H](O)[C@@H]5O)[C@H](O)[C@@H](O)[C@@H]4O)[C@H](O)[C@@H](O)[C@@H]3O)[C@H](O)[C@@H](O)[C@@H]2O)[C@H](O)[C@@H](O)[C@@H]1O (stereo partly drawn) [α-O(CH2)2Cl, n=6, 2-chloroethyl [O-β-D-glucopyranosyl-1,6]5-D-glucopyranoside]",+
7,"OC[C@H]1O[C@@H](OC[C@H]2O[C@@H](OC[C@H]3O[C@@H](OC[C@H]4O[C@@H](OC[C@H]5O[C@@H](OC[C@H]6O[C@@H](OC[C@H]7O[C@@H](OC[C@H]8O[C@@H](OC[C@H]9O[C@@H](OC[C@H]%10OC(O)[C@H](O)[C@@H](O)[C@@H]%10O)[C@H](O)[C@@H](O)[C@@H]9O)[C@H](O)[C@@H](O)[C@@H]8O)[C@H](O)[C@@H](O)[C@@H]7O)[C@H](O)[C@@H](O)[C@@H]6O)[C@H](O)[C@@H](O)[C@@H]5O)[C@H](O)[C@@H](O)[C@@H]4O)[C@H](O)[C@@H](O)[C@@H]3O)[C@H](O)[C@@H](O)[C@@H]2O)[C@H](O)[C@@H](O)[C@@H]1O (stereo partly drawn) [OH, n=10, [O-β-D-glucopyranosyl-1,6-]9-D-glucose]",+
8,"[N-]=[N+]=NCCOC1OC(COC2OC(COC3OC(COC4OC(COC5OC(COC6OC(COC7OC(CO)C(O)C(O)C7O)C(O)C(O)C6O)C(O)C(O)C5O)C(O)C(O)C4O)C(O)C(O)C3O)C(O)C(O)C2O)C(O)C(O)C1O (stereo not drawn) [α-O(CH2)2N3, n=7]",+
9,"OCC1OC(OCC2OC(OCC3OC(OCC4OC(OCC5OC(OCC6OC(OCC7OC(OCC8OC(O)C(O)C(O)C8O)C(O)C(O)C7O)C(O)C(O)C6O)C(O)C(O)C5O)C(O)C(O)C4O)C(O)C(O)C3O)C(O)C(O)C2O)C(O)C(O)C1O (stereo not shown) [OH, n=8]",+
10,"CN(Cc1ccc(C(=O)O)cc1)CC(O)[C@@H](O)[C@H](O)[C@H](O)CO[C@@H]1O[C@H](CO[C@@H]2O[C@H](CO[C@@H]3O[C@H](CO[C@@H]4O[C@H](CO[C@@H]5O[C@H](CO[C@@H]6O[C@H](CO)[C@@H](O)[C@H](O)[C@H]6O)[C@@H](O)[C@H](O)[C@H]5O)[C@@H](O)[C@H](O)[C@H]4O)[C@@H](O)[C@H](O)[C@H]3O)[C@@H](O)[C@H](O)[C@H]2O)[C@@H](O)[C@H](O)[C@H]1O (mixture of isomers) [N(Me),N(CH2)4-BzOH, n=6]",+
11,"N-[6-[(O-(β-D-glucopyranosyl-(1,6))3-β-D-glucopyranosyl](2RS,3R,4R,5R)-2,3,4,5-tetrahydroxyhexyl]-4-piperidylacetic acid [4-piperidine(CH2)CO2H, n=4]",+
12,"[N-]=[N+]=NCCO[C@H]1O[C@H](CO[C@@H]2O[C@H](CO[C@@H]3O[C@H](CO[C@@H]4O[C@H](CO)[C@@H](O)[C@H](O)[C@H]4O)[C@@H](O)[C@H](O)[C@H]3O)[C@@H](O)[C@H](O)[C@H]2O)[C@@H](O)[C@H](O)[C@H]1O [α-O(CH2)2N3, n=4, 1-O-(2-azidoethyl)-6-[O-β-D-glucopyranosyl-1,6]3-α-D-glucopyranoside]",+
13,"O=C(O)c1cc(OCc2cn(CCO[C@@H]3O[C@H](CO[C@@H]4O[C@H](CO[C@@H]5O[C@H](CO[C@@H]6O[C@H](CO)[C@@H](O)[C@H](O)[C@H]6O)[C@@H](O)[C@H](O)[C@H]5O)[C@@H](O)[C@H](O)[C@H]4O)[C@@H](O)[C@H](O)[C@H]3O)nn2)cc(OCc2cn(CCO[C@@H]3O[C@H](CO[C@@H]4O[C@H](CO[C@@H]5O[C@H](CO[C@@H]6O[C@H](CO)[C@@H](O)[C@H](O)[C@H]6O)[C@@H](O)[C@H](O)[C@H]5O)[C@@H](O)[C@H](O)[C@H]4O)[C@@H](O)[C@H](O)[C@H]3O)nn2)c1 [(β-D-glucopyanosy1-1,6)nβ-O(CH2)2-, n=4, 3,5-bis(1[2-[O-β-D-glucopyranosyl-(1→6)]4oxy]ethyl-1H-1,2,3-triazol-4-yl)methoxybenzoic acid]",+
14,"O=C(O)c1cc(OCc2cn(CCO[C@@H]3O[C@H](CO[C@@H]4O[C@H](CO[C@@H]5O[C@H](CO[C@@H]6O[C@H](CO[C@@H]7O[C@H](CO[C@@H]8O[C@H](CO)[C@@H](O)[C@H](O)[C@H]8O)[C@@H](O)[C@H](O)[C@H]7O)[C@@H](O)[C@H](O)[C@H]6O)[C@@H](O)[C@H](O)[C@H]5O)[C@@H](O)[C@H](O)[C@H]4O)[C@@H](O)[C@H](O)[C@H]3O)nn2)cc(OCc2cn(CCO[C@@H]3O[C@H](CO[C@@H]4O[C@H](CO[C@@H]5O[C@H](CO[C@@H]6O[C@H](CO[C@@H]7O[C@H](CO[C@@H]8O[C@H](CO)[C@@H](O)[C@H](O)[C@H]8O)[C@@H](O)[C@H](O)[C@H]7O)[C@@H](O)[C@H](O)[C@H]6O)[C@@H](O)[C@H](O)[C@H]5O)[C@@H](O)[C@H](O)[C@H]4O)[C@@H](O)[C@H](O)[C@H]3O)nn2)c1 [(β-D-glucopyanosy1-1,6)nβ-O(CH2)2-, n=6, 3,5-bis(1[2-[O-β-D-glucopyranosyl-(1→6)]6oxy]ethyl-1H-1,2,3-triazol-4-yl)methoxybenzoic acid]",+
15,"[N-]=[N+]=NCCOC1OC(COC2OC(COC3OC(COC4OC(COC5OC(COC6OC(COC7OC(COC8OC(CO)C(O)C(O)C8O)C(O)C(O)C7O)C(O)C(O)C6O)C(O)C(O)C5O)C(O)C(O)C4O)C(O)C(O)C3O)C(O)C(O)C2O)C(O)C(O)C1O (stereo not drawn) [α-O(CH2)2N3, n=8]",+
16,"OC[C@H]1O[C@@H](OC[C@H]2O[C@@H](OC[C@H]3OC(OCCCl)[C@H](O)[C@@H](O)[C@@H]3O)[C@H](O)[C@@H](O)[C@@H]2O)[C@H](O)[C@@H](O)[C@@H]1O (stereo partly drawn) [α-O(CH2)2Cl, n=3, 2-chloroethyl [O-β-D-glucopyranosyl-1,6]2-D-glucopyranoside]",+
